Measured values taken from US20260015333A1, “COMPOUNDS AND METHODS FOR INHIBITION OF THE EVOLUTION OF […]” (priority 2022, published 2026).

What was measured:
E. coli RNAP = molecular target: T1, E. coli RNAP (Escherichia coli, UniProt P0A7Z4+P0A800+P0A8T7+P0A8V2); assay: RNAP displacement assay, control reactions in the absence of Mfd; type: biochemical; details: RNAP with 12.5 μM ARM-1, no Mfd
T1 construct: purchased NEB
Protocol: (§1) FIGS. 2A-2D depict how ARM-1 affects Mfd's biochemical activity. FIG. 2A depicts how the kd of ARM-1 was determined using microscale thermophoresis. Data shown represent a minimum of three independent experiments. FIG. 2B depicts a NADH-coupled ATPase assay. ATP hydrolysis by Mfd was coupled to NADH oxidation. Phosphoenolpyruvate is converted to pyruvate by pyruvate kinase, transferring a phosphate group onto ADP, which is only present in the reaction following ATP hydrolysis by Mfd. Pyruvate is then converted to lactate by lactate dehydrogenase, oxidizing NADH to NAD^+. Absorbance at 340 nm by NADH is used to monitor the reaction. Data shown represent a minimum of 3 biological replicates. FIG. 2C depicts a transcription roadblock assay. A P32-labled 176 bp PCR fragment was incubated with E. coli RNAP along with saturating concentrations of ATP, GTP, and UTP. 100 nM S. typhimurium ST19 Mfd preincubated with indicated concentrations of ARM-1 was added and the reaction allowed to proceed for 6 minutes. DNA products were then resolved on a polyacrylamide gel and analyzed by phosphorimaging. […] Quantification of these gels is shown below each lane. […]
(§2) Mfd translocates along double-stranded DNA and dislodges stalled RNAP complexes. […] When quantified, a ratio of EC to IC of approximately 1 was observed, which was consistent with prior work. […]

Mfd = Mfd (Salmonella typhimurium, UniProt Q8ZQ01); assay: biochemical; design: species or system S. typhimurium
Mfd, sequence (Q8ZQ01 entry or part of it): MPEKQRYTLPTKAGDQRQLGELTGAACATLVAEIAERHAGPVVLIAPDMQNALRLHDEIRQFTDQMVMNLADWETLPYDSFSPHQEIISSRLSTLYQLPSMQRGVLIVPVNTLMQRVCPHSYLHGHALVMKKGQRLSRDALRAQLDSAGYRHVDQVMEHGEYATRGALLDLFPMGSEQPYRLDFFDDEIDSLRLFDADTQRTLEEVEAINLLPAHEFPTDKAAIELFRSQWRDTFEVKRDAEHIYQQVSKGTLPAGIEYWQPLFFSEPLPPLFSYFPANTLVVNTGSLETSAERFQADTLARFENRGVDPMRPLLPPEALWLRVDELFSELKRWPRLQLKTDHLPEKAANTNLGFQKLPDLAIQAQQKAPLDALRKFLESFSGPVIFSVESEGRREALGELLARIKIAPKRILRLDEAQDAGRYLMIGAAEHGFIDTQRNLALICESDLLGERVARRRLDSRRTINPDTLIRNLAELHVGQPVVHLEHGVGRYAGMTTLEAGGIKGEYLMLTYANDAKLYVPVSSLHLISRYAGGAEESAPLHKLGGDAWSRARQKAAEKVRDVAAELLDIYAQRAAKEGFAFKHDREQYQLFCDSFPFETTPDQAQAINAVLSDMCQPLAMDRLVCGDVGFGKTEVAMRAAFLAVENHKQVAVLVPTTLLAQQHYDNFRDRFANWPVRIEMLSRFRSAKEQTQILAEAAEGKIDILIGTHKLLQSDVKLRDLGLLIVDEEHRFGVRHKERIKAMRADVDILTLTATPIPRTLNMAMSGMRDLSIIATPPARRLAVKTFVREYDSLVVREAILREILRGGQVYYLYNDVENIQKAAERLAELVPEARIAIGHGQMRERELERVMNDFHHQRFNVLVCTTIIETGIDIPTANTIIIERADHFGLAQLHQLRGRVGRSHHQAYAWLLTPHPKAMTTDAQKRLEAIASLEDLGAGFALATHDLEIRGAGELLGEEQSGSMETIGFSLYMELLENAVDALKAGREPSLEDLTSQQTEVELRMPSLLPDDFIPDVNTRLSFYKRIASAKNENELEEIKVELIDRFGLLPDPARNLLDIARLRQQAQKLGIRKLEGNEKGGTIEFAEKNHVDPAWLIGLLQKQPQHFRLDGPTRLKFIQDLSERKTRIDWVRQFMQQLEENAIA
Protocol: as §1
ATPase assays were performed as described in Kiiansita et al., 2003. […] To start reaction, varying quantities of ATP were added and absorbance at 340 nm was measured every 60 seconds for 1 hour in an Epoch2 microplate spectrophotometer (BioTek). […]

S. typhimurium = assay: Growth curves with increasing concentrations of ARM-1; type: cell-based
Protocol: (§3) FIG. 10 depicts growth curves of indicated species in the presence of increasing concentrations of ARM-1. Precultures of each species were grown with appropriate antibiotic selection, then diluted back to OD600 0.05 in a 96 well plate. Indicated concentrations of ARM-1 were added, and plates incubated overnight at 37° C. with shaking. OD measurements taken every 60 s by BioTek plate reader. Data shown are representative of at least 6 biological replicates. Growth curve for S. typhimurium also confirms MIC of 400 μM ARM-1 for this species, with no growth observed over the experimental timeframe.

all species tested = assay: as above; type: cell-based; details: across all species tested
Protocol: as §3

S. typhimurium ST19 Mfd = assay: RNAP displacement (transcription roadblock) assay; type: biochemical; details: Mfd 100 nM pre-incubated with ARM-1 (12.5 μM); without ARM-1 EC/IC=0.33
Protocol: as §1, §2

T1 sequence (P0A7Z4 whole entry): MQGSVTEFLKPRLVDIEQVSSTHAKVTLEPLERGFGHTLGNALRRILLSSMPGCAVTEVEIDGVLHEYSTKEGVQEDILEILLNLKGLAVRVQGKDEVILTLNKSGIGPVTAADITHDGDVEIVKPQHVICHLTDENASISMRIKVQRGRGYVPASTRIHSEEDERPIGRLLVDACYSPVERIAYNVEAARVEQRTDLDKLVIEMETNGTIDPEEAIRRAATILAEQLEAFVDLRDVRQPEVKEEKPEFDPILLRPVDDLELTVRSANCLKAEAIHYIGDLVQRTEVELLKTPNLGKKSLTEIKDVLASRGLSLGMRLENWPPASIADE
T1 sequence (P0A8V2 whole entry): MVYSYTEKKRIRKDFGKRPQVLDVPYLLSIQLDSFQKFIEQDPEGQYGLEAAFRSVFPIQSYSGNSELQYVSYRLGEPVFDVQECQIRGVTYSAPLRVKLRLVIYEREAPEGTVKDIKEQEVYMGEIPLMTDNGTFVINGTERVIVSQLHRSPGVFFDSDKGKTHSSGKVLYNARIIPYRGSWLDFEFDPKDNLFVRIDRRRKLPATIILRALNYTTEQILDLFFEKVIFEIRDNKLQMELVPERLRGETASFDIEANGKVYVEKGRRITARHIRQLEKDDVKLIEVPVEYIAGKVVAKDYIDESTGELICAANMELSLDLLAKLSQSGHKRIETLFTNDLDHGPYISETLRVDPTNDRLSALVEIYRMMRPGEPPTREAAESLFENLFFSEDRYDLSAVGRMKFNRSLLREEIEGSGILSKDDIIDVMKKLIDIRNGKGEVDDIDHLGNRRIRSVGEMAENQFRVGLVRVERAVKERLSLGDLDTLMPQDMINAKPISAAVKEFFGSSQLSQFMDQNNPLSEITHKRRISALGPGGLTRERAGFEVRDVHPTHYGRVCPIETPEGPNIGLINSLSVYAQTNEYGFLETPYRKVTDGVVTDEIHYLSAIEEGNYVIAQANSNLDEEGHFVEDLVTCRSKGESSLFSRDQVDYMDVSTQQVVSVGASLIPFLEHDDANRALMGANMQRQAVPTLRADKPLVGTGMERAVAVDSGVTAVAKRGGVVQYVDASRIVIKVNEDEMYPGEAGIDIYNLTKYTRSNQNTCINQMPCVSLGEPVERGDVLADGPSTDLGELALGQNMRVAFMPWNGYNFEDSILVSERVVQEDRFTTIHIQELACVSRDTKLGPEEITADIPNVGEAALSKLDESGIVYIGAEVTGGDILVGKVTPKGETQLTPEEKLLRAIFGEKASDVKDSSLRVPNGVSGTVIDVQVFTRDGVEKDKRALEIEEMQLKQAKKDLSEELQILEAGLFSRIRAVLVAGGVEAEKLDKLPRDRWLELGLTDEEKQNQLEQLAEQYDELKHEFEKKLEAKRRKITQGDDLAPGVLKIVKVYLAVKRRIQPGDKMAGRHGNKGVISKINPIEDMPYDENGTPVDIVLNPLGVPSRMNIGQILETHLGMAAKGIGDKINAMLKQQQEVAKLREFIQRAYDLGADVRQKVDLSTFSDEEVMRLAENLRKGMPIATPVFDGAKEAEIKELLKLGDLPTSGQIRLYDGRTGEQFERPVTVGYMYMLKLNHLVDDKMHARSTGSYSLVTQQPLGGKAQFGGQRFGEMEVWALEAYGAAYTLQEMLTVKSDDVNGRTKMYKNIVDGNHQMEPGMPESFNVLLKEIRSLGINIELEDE
T1 sequence (P0A800 2-91): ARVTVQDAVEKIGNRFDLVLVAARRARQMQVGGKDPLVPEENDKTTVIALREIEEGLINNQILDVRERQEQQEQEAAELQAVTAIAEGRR
T1 sequence (P0A8T7 whole entry): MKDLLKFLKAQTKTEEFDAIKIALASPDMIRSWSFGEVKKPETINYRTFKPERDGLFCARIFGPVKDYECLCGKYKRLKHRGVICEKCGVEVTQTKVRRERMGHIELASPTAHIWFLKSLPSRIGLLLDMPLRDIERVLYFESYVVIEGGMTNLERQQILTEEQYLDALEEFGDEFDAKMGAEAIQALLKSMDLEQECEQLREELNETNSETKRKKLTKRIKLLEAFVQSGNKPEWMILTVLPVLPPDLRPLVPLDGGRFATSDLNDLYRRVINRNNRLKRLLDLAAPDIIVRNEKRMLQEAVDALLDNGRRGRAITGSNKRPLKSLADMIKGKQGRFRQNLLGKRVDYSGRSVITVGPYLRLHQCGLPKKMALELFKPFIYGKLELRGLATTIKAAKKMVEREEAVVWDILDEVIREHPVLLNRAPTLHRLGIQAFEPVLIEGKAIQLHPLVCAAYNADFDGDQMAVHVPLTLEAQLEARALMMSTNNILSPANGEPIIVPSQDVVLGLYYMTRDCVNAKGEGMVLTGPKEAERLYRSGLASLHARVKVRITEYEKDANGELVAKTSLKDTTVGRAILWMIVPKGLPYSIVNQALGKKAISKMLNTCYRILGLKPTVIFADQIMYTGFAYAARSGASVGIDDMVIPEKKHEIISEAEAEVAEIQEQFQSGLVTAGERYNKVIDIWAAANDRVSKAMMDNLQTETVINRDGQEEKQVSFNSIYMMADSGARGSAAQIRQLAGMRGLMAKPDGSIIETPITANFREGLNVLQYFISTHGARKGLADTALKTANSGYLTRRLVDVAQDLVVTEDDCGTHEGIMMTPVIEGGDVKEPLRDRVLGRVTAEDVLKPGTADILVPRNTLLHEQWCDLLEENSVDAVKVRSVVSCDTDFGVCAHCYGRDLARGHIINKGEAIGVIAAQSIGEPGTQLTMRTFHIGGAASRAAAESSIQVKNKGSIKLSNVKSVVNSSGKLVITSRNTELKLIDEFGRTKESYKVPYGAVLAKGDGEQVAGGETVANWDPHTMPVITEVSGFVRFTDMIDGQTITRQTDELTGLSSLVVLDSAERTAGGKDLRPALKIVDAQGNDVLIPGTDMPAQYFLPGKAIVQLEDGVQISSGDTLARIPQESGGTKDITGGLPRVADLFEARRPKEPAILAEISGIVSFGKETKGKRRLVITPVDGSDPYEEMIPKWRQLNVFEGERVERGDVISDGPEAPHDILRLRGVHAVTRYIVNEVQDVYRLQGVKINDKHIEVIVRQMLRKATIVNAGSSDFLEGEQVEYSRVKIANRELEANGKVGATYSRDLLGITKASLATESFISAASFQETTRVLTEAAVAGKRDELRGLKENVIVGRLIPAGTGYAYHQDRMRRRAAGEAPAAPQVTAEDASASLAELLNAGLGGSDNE

## Cc1cc(Br)ccc1-c1ccc(CNCCCN(C)C)o1 [ARM-1, N^1-((5-(4-bromo-2-methylphenyl)furan-2-yl)methyl)-N^3,N^3-dimethylpropane-1,3-diamine]
E. coli RNAP
  changes on RNAP complexes in the absence of Mfd: did not have any detectable changes
Mfd; 6.25 μM to 50 μM ARM-1, ratios of 125 to 1000 ARM-1 per Mfd
  ATP hydrolysis by Mfd: dose dependent increase
Mfd; 50 μM ARM-1, read-out: ATPase activity enhancement
  fold induction at 50 µM: ~3
S. typhimurium; Salmonella enterica, TYPHIMURIUM, growth curve, no growth observed over the experimental timeframe
  MIC: 400 µM
S. typhimurium; at the ARM-1 concentrations used for ChIP
  growth defects: no growth defects
All species tested
  doubling time, treated versus untreated population: consistent
S. typhimurium ST19 Mfd
  EC/IC (elongation complex to initiation complex ratio): 0.46
